Measured values published in patent US10543199B2, “Macrocycle and composition comprising thereof” (Shenzhen TargetRx, Inc., priority 2016, dated 2020).

What was measured:
[1] = system: BaF3-NPM-ALK cells (ALK WT); test: Cytotoxicity experiments, growth of BaF3-NPM-ALK cells, ALK WT; type: cell-based, murine; conditions: two days incubation
From the text: Cytotoxicity Experiments.
The cell line that can be used in the assay is Ba/F3, a murine pro-B cell line that has been stably transfected with the expression vector pClneo™ (Promega Corp., Madison Wis.) encoding NPM-ALK and subsequently G418-resistent cells were selected. The inhibitory activity of the compounds of Formula I can be determined as follows: BaF3-NPM-ALK cells (15000/well in a microtiter plate) were transferred to a 96-well microtiter plate. Test compounds (dissolved in DMSO) were then added in a series of concentrations (serial dilutions) with a final concentration of DMSO not exceeding 1% (v/v). […] The cell lysis was completed at room temperature within 60 minutes and the amount of Yopro bound to the DNA was determined by measurement using, for example, a CytoFluor II 96-well reader (PerSeptive Biosystems). IC50 can be determined by computer aided system using the following formula: IC50=[(ABS test−ABS start)/(ABS control−ABS start)]×100 wherein ABS was absorption.

[2] = system: cancer cells expressing the ALK mutant L1196M; test: Cytotoxicity experiments, growth of cells expressing ALK mutant L1196M; type: cell-based, murine; conditions: two days incubation
[3] = Metabolic stability in human liver microsomes; type: in vitro ADME; conditions: human liver microsomes 0.5 mg/mL, compound 1 μM
Protocol: Metabolic Experiment of Liver Microparticle.
Experiments in microsomes: Human liver microsomes: 0.5 mg/mL, Xenotech; Rat liver microsomes: 0.5 mg/mL, Xenotech; Coenzyme (NADPH/NADH): 1 mM, Sigma Life Science; Magnesium chloride: 5 mM, 100 mM phosphate buffer (pH 7.4).
Preparation of phosphate buffer (100 mM, pH7.4): A pre-formulated 0.5M potassium dihydrogen phosphate (150 mL) was mixed with 0.5M dibasic potassium phosphate (700 mL). The pH of the mixture was adjusted to 7.4 with 0.5M dibasic potassium phosphate solution. The mixture was diluted 5-fold with ultrapure water before use, and magnesium chloride was added to obtain a phosphate buffer (100 mM) containing 100 mM potassium phosphate, 3.3 mM magnesium chloride, pH 7.4.
A NADPH regeneration system solution (containing 6.5 mM NADP, 16.5 mM G-6-P, 3 U/mL G-6-PD, 3.3 mM magnesium chloride) was prepared and placed on wet ice prior to use.
Preparation of stop solution: acetonitrile solution containing 50 ng/mL propranolol hydrochloride and 200 ng/mL tolbutamide (internal standard). 25057.5 μL of phosphate buffer (pH 7.4) was taken into a 50 mL centrifuge tube, to which 812.5 μL human liver microsomes were added, and mixed to obtain a liver microsome dilution solution with a protein concentration of 0.625 mg/mL.
Incubation of the samples: The stock solution of the respective compound was respectively diluted to 0.25 mM with an aqueous solution containing 70% acetonitrile, and used as a working solution, ready for use. 398 μL of the dilution solution of human liver microsomes or rat liver microsome were added to a 96-well incubation plate (N=2), respectively, and 2 μL of 0.25 mM working solution was added and mixed.
Metabolic stability assay: 300 μL of pre-chilled stop solution was added to each well of a 96-well deep well plate and placed on ice as a stop plate. The 96 well incubation plate and NADPH regeneration system were placed in a 37° C. water bath box, shaken at 100 rpm and pre-incubated for 5 min. 80 μL of incubation solution was taken out from each well of the incubation plate and added to the stop plate, mixed, and replenished with 20 μL of NADPH regeneration system solution as a 0-min sample. 80 μL of NADPH regeneration system solution was added to each well of the incubation plate to start the reaction and start counting. […] 100 μL of the supernatant was added to a 96-well plate to which 100 μL of distilled water was previously added, mixed, and analyzed by LC-MS/MS.
Data analysis: The peak areas of the corresponding compound and internal standard were detected by LC-MS/MS system, and the ratio of the peak area of the compound to the internal standard was calculated.

CC1Oc2cc(cnc2N)-c2c(nn(C)c2C#N)CN(C)C(=O)c2ccc(F)cc21 (stereo not drawn) [Compound 58]
IC50 [1]: < 1 nM | IC50 [2]: 1 to 100 nM

C[C@H]1Oc2cc(cnc2N)-c2c(nn(C)c2C#N)CN(C)C(=O)c2ccc(F)cc21 [PF-06463922, reference compound]
IC50 [1]: < 1 nM | IC50 [2]: 1 to 100 nM | CLint [3]: 11.8 µL/min/mg | t1/2 [3]: 1.952 h

CC1Oc2cc(cnc2N)-c2c(nn(C)c2C#N)CN(C)C(=O)c2ccc(F)cc21 (stereo not drawn) [Compound 28]
IC50 [1]: < 1 nM | IC50 [2]: 1 to 100 nM

CC1Oc2cc(cnc2N)-c2c(nn(C)c2C#N)CN(C)C(=O)c2ccc(F)cc21 (racemic) [Compound 72]
IC50 [1]: < 1 nM | IC50 [2]: 1 to 100 nM

CC1Oc2cc(cnc2N)-c2c(nn(C)c2C#N)CN(C)C(=O)c2ccc(F)cc21 (stereo not drawn) [Compound 45]
IC50 [1]: < 1 nM | IC50 [2]: 1 to 100 nM

[2H]C([2H])([2H])n1nc2c(c1C#N)-c1cnc(N)c(c1)OC(C)c1cc(F)ccc1C(=O)N(C)C2 (stereo not drawn) [Compound 28]
CLint [3]: 9.7 µL/min/mg | t1/2 [3]: 2.377 h

CC1Oc2cc(cnc2N)-c2c(nn(C)c2C#N)CN(C)C(=O)c2ccc(F)cc21 (stereo not drawn) [Compound 76]
IC50 [1]: < 1 nM | IC50 [2]: 1 to 100 nM

CC1Oc2cc(cnc2N)-c2c(nn(C)c2C#N)CN(C)C(=O)c2ccc(F)cc21 (stereo not drawn) [Compound 18]
IC50 [1]: < 1 nM | IC50 [2]: 1 to 100 nM
